Patent US20200368315A1, “ANTIMICROBIAL PEPTIDES AND ADMIXTURES THEREOF SHOWING ANTIMICROBIAL ACTIVITY AGAINST GRAM-NEGATIVE PATHOGENS” (priority 2017, published 2020)
In brackets after ≈: the same amount, converted by molar mass. Several values for one entry are separate records, joined by “and”; a condition that tells them apart may be missing. Identical values can stand only once. Like-named read-outs stand apart in the source and are kept apart here.

Columns and labels:
[1] = test system: E. aerogenes LMG 02094; format: cell-based, Enterobacter aerogenes
Source text: (§1) The test of synergistic effect was processed by conducting standard chequerboard broth microdilution assays. Nisin (Drug X) was loaded two fold serially diluted from row 1 to 10 in X-axis while GNPs (Drug Y) were loaded in eight two fold serially diluted concentrations from line A to H in Y-axis (FIG. 1). The original concentrations of peptides were MICs of each. Row 11 are used as growth control with no peptide was included, while row 12 with MHB medium-only wells was included as a sterility control as referred before. 50 uL fresh bacterial suspension was added to well 1-11 and final volume of each well on the plate is 100 uL.
(§2) To determine whether the combination therapy is additive, synergistic or antagonistic, fractional inhibitory concentration (FIC) indices were calculated. FICI=FICa+FICb=MICac/MICa+MICbc/MICb. The MICa/MICb is the MIC of compound A/B alone. MICac is the MIC of compound A in combination with compound B and MICbc is the MIC of compound B when it was combination with compound A. […]. FICa is FIC of compound A while FICb is FIC of compound B. The FICI is interpreted as follows: synergistic, FICI≤0.5; additive, 0.5<FICI<1; indifferent, 1<FICI<2; antagonistic, FICI>2.

[2] = test system: K. pneumoniae LMG20218; assay: microbe, parasite or virus in culture; format: cell-based, Klebsiella pneumoniae; details: K. pneumoniae LMG20218
Description: (§3) Escherichia coli, Klebsiella pneumoniae, Pseudomonas aeruginosa, Acinetobacter baumannii, Enterobacter aerogenes were grown in Luria-Bertani (LB) broth shaken (200 rpm) or on LB agar at 37° C. […] MICs tests were performed in duplicate by a liquid growth inhibition microdilution assays in sterilized polypropylene microtiter plates according to Wiegand and […] [27]. […] The suspension was diluted in a ratio of 1:100 using Mueller Hinton Broth (MHB) and the final inoculum is 5*10^5 CFU/mL. […] The antimicrobials were diluted serially by 1/2 one by one and 50 uL diluted bacterial suspension were added to each well to make the final volume to be 100 uL. Growth control was accomplished by remove 10 uL from well 11 and dilute 1000 times to plate 1/10 suspension on the solid medium. […] The number of colonies on the control agar plate should be around 50 to ensure the concentration of the inoculum and the effectiveness of the experiment. The lowest concentration of the antimicrobials that inhibits visible growth of the indicator is identified as MIC.

[3] = test system: P. aeruginosa LMG 6395; format: cell-based, Pseudomonas aeruginosa
Source text: as §1, §2

[4] = test system: P. aeruginosa LMG 6395; assay: microbe, parasite or virus in culture; format: cell-based, Pseudomonas aeruginosa; details: P. aeruginosa LMG 6395
Description: as §3

[5] = test system: E. aerogenes LMG 02094; assay: microbe, parasite or virus in culture; format: cell-based, Enterobacter aerogenes; details: E. aerogenes LMG 02094
Description: as §3

[6] = test system: E. coli LMG15862
Description: (§4) The test of synergistic effect was processed by conducting standard chequerboard broth microdilution assays. […] Row 11 are used as growth control with no peptide was included, while row 12 with MHB medium-only wells was included as a sterility control as referred before. 50 uL fresh bacterial suspension was added to well 1-11 and final volume of each well on the plate is 100 uL.
(§5) The test of synergistic effect was processed as method 1.4.
as §2

[7] = test system: P. aeruginosa LMG 6395
Description: as §4, §5, §2

[8] = test system: K. pneumoniae LMG20218
Description: as §4, §5, §2

[9] = test system: E. aerogenes LMG 02094
Description: as §4, §5, §2

[10] = test system: A. baumannii LMG01041
Description: as §4, §5, §2

[11] = test system: E. coli LMG15862; assay: microbe, parasite or virus in culture; format: cell-based, Escherichia coli; details: E. coli LMG15862
Description: as §3

[12] = test system: A. baumannii LMG01041; assay: microbe, parasite or virus in culture; format: cell-based, Acinetobacter baumannii; details: A. baumannii LMG01041
Description: as §3

[13] = test system: A. baumannii LMG01041; format: cell-based, Acinetobacter baumannii
Source text: as §1, §2

[14] = test system: K. pneumoniae LMG20218; format: cell-based, Klebsiella pneumoniae
Source text: as §1, §2

[15] = test system: Gram-negative pathogens; format: cell-based; details: L-form GNPs alone; five Gram-negative pathogens
Description: as §3

[16] = test system: E. coli LMG15862; format: cell-based, Escherichia coli
Source text: as §1, §2

[17] = test system: L. lactis MG1363; details: L. lactis MG1363
[18] = MIC of GNP when used with the MICac concentration of nisin
[19] = MIC of nisin in combination with the GNP at the MICbc concentration
[20] = MIC of GNP in combination with vancomycin at the MICac concentration
[21] = MIC of vancomycin in combination with the GNP at the MICbc concentration

CC[C@H](C)[C@H](NC(=O)[C@H](CCCNC(=N)N)NC(=O)[C@H](CCCNC(=N)N)NC(=O)[C@H](Cc1ccccc1)NC(=O)[C@H](CC(C)C)NC(=O)[C@H](CCCNC(=N)N)NC(=O)[C@@H](N)CCCNC(=N)N)C(=O)N[C@@H](CC(C)C)C(=O)N[C@@H](CCCNC(=N)N)C(=O)N[C@@H](Cc1c[nH]c2ccccc12)C(=O)N[C@@H](CC(C)C)C(N)=O [GNP-6]
MICb ([1]; MIC of GNP alone): 8 µM
MICbc [1, 18]: 1 µM
MICac [1, 19]: 1 µM
FICI ([1]; nisin + GNP): 0.156
MIC value of antimicrobial compounds alone [2]: 4 µM
MICb (MIC of GNP alone) ([2]; L-form GNP, Table 7): 4 µM
MIC value ([2]; alone): 4 µM (≈ 6.34 µg/mL)
MICb ([3]; MIC of GNP alone): 3 µM
MICbc [3, 18]: 0.75 µM
MICac [3, 19]: 4.5 µM
FICI ([3]; nisin + GNP): 0.375
MICb (MIC of GNP alone) ([4]; L-form GNP, Table 7): 3 µM
MIC value of antimicrobial compounds alone [4]: 3 µM
MIC value ([4]; alone): 3 µM (≈ 4.75 µg/mL)
MIC value of antimicrobial compounds alone [5]: 8 µM
MICb (MIC of GNP alone) ([5]; L-form GNP, Table 7): 8 µM
MIC value ([5]; alone): 8 µM (≈ 12.7 µg/mL)
MICb ([6]; MIC of GNP alone): 2 µM
MICbc [6, 20]: 0.5 µM
MICac [6, 21]: 16 µM
FICI ([6]; vancomycin + GNP): 0.5
MICb ([7]; MIC of GNP alone): 3 µM
MICbc [7, 20]: 1.5 µM
MICac [7, 21]: 32 µM
FICI ([7]; vancomycin + GNP): 0.75
MICb ([8]; MIC of GNP alone): 4 µM
MICbc [8, 20]: 0.25 µM
MICac [8, 21]: 32 µM and 16 µM
FICI ([8]; vancomycin + GNP): 0.313 and 0.25 and 0.5
MICb ([9]; MIC of GNP alone): 8 µM
MICbc [9, 20]: 2 µM
MICac [9, 21]: 8 µM
FICI ([9]; vancomycin + GNP): 0.291
MICb ([10]; MIC of GNP alone): 2 µM
MICbc [10, 20]: 0.5 µM and 1 µM
MICac [10, 21]: 8 µM and 4 µM
FICI ([10]; vancomycin + GNP): 0.5 and 0.625
MIC value of antimicrobial compounds alone [11]: 2 µM
MICb (GNP concentration when used alone) ([11]; L-form GNP, Table 6): 2 µM
MIC value ([11]; alone): 2 µM (≈ 3.17 µg/mL)
MIC value of antimicrobial compounds alone [12]: 2 µM
MICb (MIC of GNP alone) ([12]; L-form GNP, Table 7): 2 µM
MIC value ([12]; alone): 2 µM (≈ 3.17 µg/mL)
MICb ([13]; MIC of GNP alone): 2 µM
MICbc [13, 18]: 0.5 µM
MICac [13, 19]: 0.75 µM
FICI ([13]; nisin + GNP): 0.375
MICb ([14]; MIC of GNP alone): 4 µM
MICbc [14, 18]: 0.5 µM
MICac [14, 19]: 3 µM
FICI ([14]; nisin + GNP): 0.188
Activity ranking amongst all the GNPs [15]: most potent
MICb ([16]; MIC of GNP alone): 2 µM
MICbc [16, 18]: 0.5 µM
MICac [16, 19]: 1.5 µM
FICI ([16]; nisin + GNP): 0.375
MIC value of antimicrobial compounds alone [17]: 1 µM
